From paper PMC10850145, “Hormonal steroids induce multidrug resistance and stress response genes in Neisseria gonorrhoeae by binding to MtrR” (Nature Communications, 2024)
“And” between values parts separate entries of the source, which are not always exact repeats. Equal entries are not always repeated. Where two headings read alike, the source gives them in different places.

Tested on: rpoH-lacZ expression
Assay type: cell-based, Neisseria gonorrhoeae
Conditions: for Miller units, single well: individual replicate
[1] = rpoH-lacZ, ΔmtrR + mtrR D171A in trans, 6.25 µM hormone, single replicate
[2] = rpoH-lacZ, ΔmtrR + mtrR D171A in trans, 12.5 µM hormone, single replicate
[3] = rpoH-lacZ, ΔmtrR + mtrR D171A in trans, 25 µM hormone, single replicate
[4] = rpoH-lacZ, ΔmtrR + mtrR D171A in trans, 50 µM hormone, single replicate
[5] = rpoH-lacZ, ΔmtrR + mtrR WT in trans, 25 µM hormone, single replicate

## C[C@]12CC[C@H]3[C@@H](CCC4=CC(=O)CC[C@@]43C)[C@@H]1CC[C@@H]2O [Testosterone, testosterone]
12.5 µM hormone, plate columns 1-6 (WT), mean of plate rows 5-8 (rpoH)
  Miller units, Mean: 130 Miller units
12.5 µM hormone, plate columns 1-6 (WT), plate rows 5-8 (rpoH), single well
  Miller units: 120 Miller units and 124 Miller units and 149 Miller units and 125 Miller units
12.5 µM hormone, plate columns 7-12 (second strain not given), plate rows 5-8 (rpoH), single well
  Miller units: 161 Miller units and 177 Miller units and 186 Miller units and 176 Miller units
12.5 µM hormone, plate columns 7-12 (second strain), mean of plate rows 5-8 (rpoH)
  Miller units, Mean: 175 Miller units
12.5 µM hormone, plate columns 7-12 (second strain, not WT)
  Miller units, single well: 161 Miller units and 177 Miller units and 186 Miller units
12.5 µM hormone, plate columns 7-12 (second strain, not WT), mean of 4 wells
  Miller units, Mean: 175 Miller units
12.5 µM, plate column 4, mean of plate rows 5-8, right (rpoH) half of sheet
  Plate-6 (Testosterone) Miller units, Mean: 52 Miller units
12.5 µM, plate column 4, plate rows 5-8, single wells, right (rpoH) half of sheet
  Plate-6 (Testosterone) Miller units: 51 Miller units and 50 Miller units and 56 Miller units and 52 Miller units
12.5 µM, plate column 10, mean of plate rows 5-8, right (rpoH) half of sheet
  Plate-6 (Testosterone) Miller units, Mean: 62 Miller units
12.5 µM, plate column 10, plate rows 5-8, single wells, right (rpoH) half of sheet
  Plate-6 (Testosterone) Miller units: 58 Miller units and 54 Miller units and 63 Miller units and 74 Miller units
25 µM hormone, plate columns 1-6 (WT)
  Miller units, single well: 127 Miller units and 137 Miller units
25 µM hormone, plate columns 1-6 (WT), mean of 4 wells
  Miller units, Mean: 133 Miller units
25 µM hormone, plate columns 1-6 (WT), mean of plate rows 5-8 (rpoH)
  Miller units, Mean: 133 Miller units
25 µM hormone, plate columns 1-6 (WT), plate rows 5-8 (rpoH), single well
  Miller units: 127 Miller units and 137 Miller units and 133 Miller units
25 µM hormone, plate columns 7-12 (second strain not given), plate rows 5-8 (rpoH), single well
  Miller units: 168 Miller units and 179 Miller units and 147 Miller units and 185 Miller units
25 µM hormone, plate columns 7-12 (second strain), mean of plate rows 5-8 (rpoH)
  Miller units, Mean: 170 Miller units
25 µM hormone, plate columns 7-12 (second strain, not WT)
  Miller units, single well: 168 Miller units and 179 Miller units and 147 Miller units
25 µM hormone, plate columns 7-12 (second strain, not WT), mean of 4 wells
  Miller units, Mean: 170 Miller units
25 µM, plate column 5, mean of plate rows 5-8, right (rpoH) half of sheet
  Plate-6 (Testosterone) Miller units, Mean: 63 Miller units
25 µM, plate column 5, plate rows 5-8, single wells, right (rpoH) half of sheet
  Plate-6 (Testosterone) Miller units: 68 Miller units and 55 Miller units and 57 Miller units and 70 Miller units
25 µM, plate column 11, mean of plate rows 5-8, right (rpoH) half of sheet
  Plate-6 (Testosterone) Miller units, Mean: 65 Miller units
25 µM, plate column 11, plate rows 5-8, single wells, right (rpoH) half of sheet
  Plate-6 (Testosterone) Miller units: 64 Miller units and 60 Miller units and 68 Miller units and 67 Miller units
50 µM hormone, plate columns 1-6 (WT)
  Miller units, single well: 140 Miller units and 146 Miller units and 175 Miller units
50 µM hormone, plate columns 1-6 (WT), mean of 4 wells
  Miller units, Mean: 152 Miller units
50 µM hormone, plate columns 1-6 (WT), mean of plate rows 5-8 (rpoH)
  Miller units, Mean: 152 Miller units
50 µM hormone, plate columns 1-6 (WT), plate rows 5-8 (rpoH), single well
  Miller units: 140 Miller units and 146 Miller units and 175 Miller units
50 µM hormone, plate columns 7-12 (second strain not given), plate rows 5-8 (rpoH), single well
  Miller units: 166 Miller units and 158 Miller units and 156 Miller units
50 µM hormone, plate columns 7-12 (second strain), mean of plate rows 5-8 (rpoH)
  Miller units, Mean: 162 Miller units
50 µM hormone, plate columns 7-12 (second strain, not WT)
  Miller units, single well: 166 Miller units and 158 Miller units and 156 Miller units
50 µM hormone, plate columns 7-12 (second strain, not WT), mean of 4 wells
  Miller units, Mean: 162 Miller units
50 µM, plate column 6, mean of plate rows 5-8, right (rpoH) half of sheet
  Plate-6 (Testosterone) Miller units, Mean: 68 Miller units
50 µM, plate column 6, plate rows 5-8, single wells, right (rpoH) half of sheet
  Plate-6 (Testosterone) Miller units: 76 Miller units and 71 Miller units and 62 Miller units and 63 Miller units
50 µM, plate column 12, mean of plate rows 5-8, right (rpoH) half of sheet
  Plate-6 (Testosterone) Miller units, Mean: 57 Miller units
50 µM, single wells, right (rpoH) half of sheet
  Plate-6 (Testosterone) Miller units: 65 Miller units and 49 Miller units and 56 Miller units and 58 Miller units
Complemented (MtrR+) strains, increasing hormone
  induction of rpoH expression: could be induced
Loss of MtrR or MtrR-D171A strain
  induction of rpoH expression: abrogated
[1]
  Miller units: 55 Miller units and 65 Miller units
  β-galactosidase activity (Miller units): 55 Miller units and 57 Miller units and 80 Miller units
[2]
  Miller units: 63 Miller units
  β-galactosidase activity (Miller units): 58 Miller units and 54 Miller units and 74 Miller units
[3]
  Miller units: 68 Miller units
  β-galactosidase activity (Miller units): 64 Miller units and 60 Miller units and 67 Miller units
[4]
  Miller units: 56 Miller units
  β-galactosidase activity (Miller units): 65 Miller units and 49 Miller units and 58 Miller units
rpoH-lacZ, ΔmtrR + mtrR WT in trans, 6.25 µM hormone, single replicate
  β-galactosidase activity (Miller units): 39 Miller units and 46 Miller units and 47 Miller units
rpoH-lacZ, ΔmtrR + mtrR WT in trans, 12.5 µM hormone, single replicate
  β-galactosidase activity (Miller units): 51 Miller units and 50 Miller units and 56 Miller units and 52 Miller units
[5]
  Miller units: 55 Miller units
  β-galactosidase activity (Miller units): 68 Miller units and 55 Miller units and 57 Miller units and 70 Miller units
rpoH-lacZ, ΔmtrR + mtrR WT in trans, 50 µM hormone, single replicate
  β-galactosidase activity (Miller units): 76 Miller units and 71 Miller units and 62 Miller units and 63 Miller units
rpoH-lacZ, ΔmtrR strain, 6.25 µM hormone, single replicate
  β-galactosidase activity (Miller units): 119 Miller units and 89 Miller units and 76 Miller units
rpoH-lacZ, ΔmtrR strain, 12.5 µM hormone, single replicate
  β-galactosidase activity (Miller units): 126 Miller units and 100 Miller units and 81 Miller units
rpoH-lacZ, ΔmtrR strain, 25 µM hormone, single replicate
  β-galactosidase activity (Miller units): 155 Miller units and 93 Miller units and 79 Miller units
rpoH-lacZ, ΔmtrR strain, 50 µM hormone, single replicate
  β-galactosidase activity (Miller units): 151 Miller units and 101 Miller units and 93 Miller units
rpoH-lacZ, ΔmtrR, 6.25 µM hormone, single replicate
  Miller units: 100 Miller units
rpoH-lacZ, ΔmtrR, 12.5 µM hormone, single replicate
  Miller units: 101 Miller units
rpoH-lacZ, ΔmtrR, 25 µM hormone, single replicate
  Miller units: 122 Miller units
rpoH-lacZ, ΔmtrR, 50 µM hormone, single replicate
  Miller units: 132 Miller units
Strain WT (FA19/pLES94-rpoH), hormone 6.25 µM
  β-galactosidase activity, rpoH-lacZ, Mean: 69 Miller units
Strain WT (FA19/pLES94-rpoH), hormone 12.5 µM
  β-galactosidase activity, rpoH-lacZ, Mean: 81 Miller units
Strain WT (FA19/pLES94-rpoH), hormone 25 µM
  β-galactosidase activity, rpoH-lacZ, Mean: 98 Miller units
Strain WT (FA19/pLES94-rpoH), hormone 50 µM
  β-galactosidase activity, rpoH-lacZ, Mean: 117 Miller units
Strain producing MtrR R176E
  activation of rpoH: significantly less activation
Strain ΔmtrR (FA19 ∆mtrR/pLES94-rpoH), hormone 6.25 µM
  β-galactosidase activity, rpoH-lacZ, Mean: 96 Miller units
Strain ΔmtrR (FA19 ∆mtrR/pLES94-rpoH), hormone 12.5 µM
  β-galactosidase activity, rpoH-lacZ, Mean: 102 Miller units
Strain ΔmtrR (FA19 ∆mtrR/pLES94-rpoH), hormone 25 µM
  β-galactosidase activity, rpoH-lacZ, Mean: 112 Miller units
Strain ΔmtrR (FA19 ∆mtrR/pLES94-rpoH), hormone 50 µM
  β-galactosidase activity, rpoH-lacZ, Mean: 119 Miller units
Strain ΔmtrR + mtrR D171A (pGCC3-mtrR D171A), hormone 6.25 µM
  β-galactosidase activity, rpoH-lacZ, Mean: 64 Miller units
Strain ΔmtrR + mtrR D171A (pGCC3-mtrR D171A), hormone 12.5 µM
  β-galactosidase activity, rpoH-lacZ, Mean: 62 Miller units
Strain ΔmtrR + mtrR D171A (pGCC3-mtrR D171A), hormone 25 µM
  β-galactosidase activity, rpoH-lacZ, Mean: 65 Miller units
Strain ΔmtrR + mtrR D171A (pGCC3-mtrR D171A), hormone 50 µM
  β-galactosidase activity, rpoH-lacZ, Mean: 57 Miller units
Strain ΔmtrR + mtrR WT (pGCC3-mtrR), hormone 6.25 µM
  β-galactosidase activity, rpoH-lacZ, Mean: 43 Miller units
Strain ΔmtrR + mtrR WT (pGCC3-mtrR), hormone 12.5 µM
  β-galactosidase activity, rpoH-lacZ, Mean: 52 Miller units
Strain ΔmtrR + mtrR WT (pGCC3-mtrR), hormone 25 µM
  β-galactosidase activity, rpoH-lacZ, Mean: 63 Miller units
Strain ΔmtrR + mtrR WT (pGCC3-mtrR), hormone 50 µM
  β-galactosidase activity, rpoH-lacZ, Mean: 68 Miller units
Testosterone 6.25 µM, plate column 3, lower four plate rows
  Plate-6 (Testosterone) Miller units, Mean: 43 Miller units
Testosterone 6.25 µM, plate column 9 (second strain set, columns 7-12), lower four plate rows
  Plate-6 (Testosterone) Miller units, Mean: 64 Miller units
Testosterone 12.5 µM, plate column 4, lower four plate rows
  Plate-6 (Testosterone) Miller units, Mean: 52 Miller units
Testosterone 12.5 µM, plate column 10 (second strain set, columns 7-12), lower four plate rows
  Plate-6 (Testosterone) Miller units, Mean: 62 Miller units
Testosterone 25 µM, plate column 5, lower four plate rows
  Plate-6 (Testosterone) Miller units, Mean: 63 Miller units
Testosterone 25 µM, plate column 11 (second strain set, columns 7-12), lower four plate rows
  Plate-6 (Testosterone) Miller units, Mean: 65 Miller units
Testosterone 50 µM, plate column 6, lower four plate rows
  Plate-6 (Testosterone) Miller units, Mean: 68 Miller units
Testosterone 50 µM, plate column 12 (second strain set, columns 7-12), lower four plate rows
  Plate-6 (Testosterone) Miller units, Mean: 57 Miller units
